Laboratory results from patent US20210052358A1, “TEETH WHITENING PRODUCT CONTAINING PIEZOELECTRIC MATERIAL” (Nanjing University of Science & Technology, priority 2019, published 2021).
Where two headings read alike, the source gives them in different places.

Legend:
[1] = after whitening for the same time period, SEM (FIG. 7)
[2] = system: rat thoracic aortic smooth muscle cells; assay type: cell-based; details: added to culture medium; final concentration: barium titanate 1 mg/mL, H2O2 15% (FIG. 6)
Experimental: A biological toxicity testing was conducted on barium titanate powders using rat thoracic aortic smooth muscle cells. Different additives were charged into cell culture media. After culture for a period of time, biological statistics was conducted. FIG. 6(a) illustrates a cell count in a standard medium as a function of cell culture time; FIGS. 6(b) and 6(c) illustrate results after addition of barium titanate powders (final concentration: 1 mg/mL) and 30% H2O2 (final concentration: 15%) in a culture medium, respectively; FIG. 6(d) illustrates mathematical statistics of results of every day.

OO [H2O2, hydrogen peroxide]
damage to the tooth surface / enamel [1]: damages the tooth surface seriously
damage to the tooth surface / enamel ([1]; listed as 30% H2O2): causes non-ignorable damage to the enamel on the tooth surface
effect on cell growth and proliferation (cell count versus culture time) [2]: almost all cells in the medium die
